Measurements taken from patent publication US5358947A, “Angiotensin II receptor blocking 2,3-substituted pyrazolo[1,5-a]-1,3,5-triazin-4(3H)-ones” (American Cyanamid Company, priority 1993, dated 1994).
“And” between values parts separate entries of the source, which are not always exact repeats. Identical values can stand only once. Counter-ions that a name gives are not always drawn.

Tested on: ANGIOTENSIN II (AII) VASOPRESSOR RESPONSE
Experiment: AII Challenge: angiotensin II (AII) vasopressor response in conscious rats
Type: in vivo
Design: Response After AII / Change / Average Change: unit not given here
Conditions: 10 mg/kg i.v.; for Response After AII / Change / Control Before AII: individual rat; for Control Before AII: in mmHg (unit assumed); for % Inhibition / Average Change: n = 2
Procedure, shortened: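 Conscious male Okamoto-Aoki SHR (16-20 weeks, ~330 g), aorta/vena cava cannulated, challenged with AII 0.05 and 0.1 ug/kg i.v. before and at 30-300 min after compound dosed i.v., i.p. or orally. Systolic pressure rise expressed relative to each rat's predose response (100%).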

[1] = AII 0.05 mcg/kg, 30 min post dose
[2] = AII 0.05 mcg/kg, 30 min post dose, listed as Ex. 21, potassium salt
[3] = AII 0.05 mcg/kg, 60 min post dose, listed as Ex. 21, potassium salt
[4] = AII 0.05 mcg/kg, 90 min post dose, listed as Ex. 21, potassium salt
[5] = AII 0.05 mcg/kg, 120 min post dose, listed as Ex. 21, potassium salt
[6] = AII 0.05 mcg/kg, 180 min post dose, listed as Ex. 21, potassium salt
[7] = AII 0.05 mcg/kg, 240 min post dose, listed as Ex. 21, potassium salt
[8] = AII 0.05 mcg/kg, 300 min post dose, listed as Ex. 21, potassium salt
[9] = AII 0.1 mcg/kg, 30 min post dose
[10] = AII 0.1 mcg/kg, 30 min post dose, listed as Ex. 21, potassium salt
[11] = AII 0.1 mcg/kg, 60 min post dose, listed as Ex. 21, potassium salt
[12] = AII 0.1 mcg/kg, 90 min post dose, listed as Ex. 21, potassium salt
[13] = AII 0.1 mcg/kg, 120 min post dose, listed as Ex. 21, potassium salt
[14] = AII 0.1 mcg/kg, 180 min post dose, listed as Ex. 21, potassium salt
[15] = AII 0.1 mcg/kg, 240 min post dose, listed as Ex. 21, potassium salt
[16] = AII 0.1 mcg/kg, 300 min post dose, listed as Ex. 21, potassium salt

Compound: CCCCc1nc2ccnn2c(=O)n1Cc1ccc(-c2ccccc2-c2nn[nH]n2)cc1 [Example 21, 2-Butyl-3-[[2'-(1H-tetrazol-5-yl)-[[1,1'-biphenyl]-4-yl]methyl]-pyrazolo[1,5-a]-1,3,5-triazin-4(3H)-one potassium salt]
- Response After AII [1]: 220
- Change [2]: 5 and 25
- Response After AII [2]: 225
- Control Before AII [2]: 215 and 200
- % Inhibition [1]: 65%
- Average Change [1]: 15
- Change [3]: 25 and 40
- Response After AII [3]: 235 and 250
- Control Before AII [3]: 210
- % Inhibition [3]: 24%
- Average Change [3]: 32.5
- Change [4]: 20
- Response After AII [4]: 230 and 260
- Control Before AII [4]: 210 and 240
- % Inhibition [4]: 53%
- Average Change [4]: 20
- Control Before AII (AII 0.05 mcg/kg, 120 min post dose): 220
- Change [5]: 20 and 30
- Response After AII [5]: 240 and 255
- Control Before AII [5]: 225
- % Inhibition [5]: 41%
- Average Change [5]: 25
- Change [6]: 21 and 45
- Response After AII [6]: 245 and 255
- Control Before AII [6]: 224 and 210
- % Inhibition [6]: 22%
- Average Change [6]: 33
- Change [7]: 25 and 35
- Response After AII [7]: 245 and 250
- Control Before AII [7]: 220 and 215
- % Inhibition [7]: 29%
- Average Change [7]: 30
- Change [8]: 31 and 40
- Response After AII [8]: 245 and 250
- Control Before AII [8]: 214 and 210
- % Inhibition [8]: 16%
- Average Change [8]: 35.5
- Response After AII [9]: 230
- Change [10]: 15 and 30
- Response After AII [10]: 225
- Control Before AII [10]: 210 and 200
- % Inhibition [9]: 58%
- Average Change [9]: 22.5
- Change [11]: 20 and 30
- Response After AII [11]: 245 and 255
- Control Before AII [11]: 225
- % Inhibition [11]: 53%
- Average Change [11]: 25
- Change [12]: 30 and 35
- Response After AII [12]: 245 and 260
- Control Before AII [12]: 215 and 225
- % Inhibition [12]: 39%
- Average Change [12]: 32.5
- Change [13]: 35 and 40
- Response After AII [13]: 255 and 265
- Control Before AII [13]: 220 and 225
- % Inhibition [13]: 30%
- Average Change [13]: 37.5
- Control Before AII (AII 0.1 mcg/kg, 180 min post dose): 240
- Change [14]: 30 and 35
- Response After AII [14]: 255 and 275
- Control Before AII [14]: 225
- % Inhibition [14]: 39%
- Average Change [14]: 32.5
- Change [15]: 40
- Response After AII [15]: 265 and 260
- Control Before AII [15]: 225 and 220
- % Inhibition [15]: 25%
- Average Change [15]: 40
- Change [16]: 50 and 60
- Response After AII [16]: 265 and 280
- Control Before AII [16]: 215 and 220
- % Inhibition [16]: -3%
- Average Change [16]: 55
